What was measured:
[1] = target: T1, Cholecystokinin receptor type A (Rattus norvegicus, UniProt P30551); experiment: Inhibition of specific binding of [125 I] Bolton Hunter CCK-8 to Cholecystokinin type A receptor in the rat pancreas
T1 sequence (P30551 whole entry): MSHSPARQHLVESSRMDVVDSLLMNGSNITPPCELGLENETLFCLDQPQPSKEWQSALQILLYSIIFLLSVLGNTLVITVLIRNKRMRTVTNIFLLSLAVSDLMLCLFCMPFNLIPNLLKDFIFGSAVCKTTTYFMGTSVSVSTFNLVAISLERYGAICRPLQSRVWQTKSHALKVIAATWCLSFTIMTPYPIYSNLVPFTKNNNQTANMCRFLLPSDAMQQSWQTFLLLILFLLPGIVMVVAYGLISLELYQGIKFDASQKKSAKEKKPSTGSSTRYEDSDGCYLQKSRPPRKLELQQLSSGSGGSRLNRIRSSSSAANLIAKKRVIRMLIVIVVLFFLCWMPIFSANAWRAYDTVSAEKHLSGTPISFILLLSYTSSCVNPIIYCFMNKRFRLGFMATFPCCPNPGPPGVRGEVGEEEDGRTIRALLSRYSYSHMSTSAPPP

[2] = target: T2, Gastrin/cholecystokinin type B receptor (Mus musculus, UniProt P56481); experiment: Inhibition of [125 I]CCK-8 binding to Cholecystokinin type B receptor of mouse cerebral cortex; assay type: tissue-based
T2 sequence (P56481 whole entry): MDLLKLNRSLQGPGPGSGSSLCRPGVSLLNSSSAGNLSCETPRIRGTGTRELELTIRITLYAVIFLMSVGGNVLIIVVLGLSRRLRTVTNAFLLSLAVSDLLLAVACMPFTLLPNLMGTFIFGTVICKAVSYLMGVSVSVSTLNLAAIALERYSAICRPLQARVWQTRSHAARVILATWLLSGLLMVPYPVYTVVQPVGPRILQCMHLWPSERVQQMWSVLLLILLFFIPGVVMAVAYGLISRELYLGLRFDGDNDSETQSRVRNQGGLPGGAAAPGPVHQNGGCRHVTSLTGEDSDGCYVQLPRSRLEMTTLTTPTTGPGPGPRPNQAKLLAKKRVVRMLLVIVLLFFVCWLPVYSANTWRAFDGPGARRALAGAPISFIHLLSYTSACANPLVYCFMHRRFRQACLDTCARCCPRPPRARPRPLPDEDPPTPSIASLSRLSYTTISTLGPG

[3] = target: T3, Gastrin/cholecystokinin type B receptor (Mus musculus) (UniProt P56481); experiment: Binding activity
T3 sequence (whole entry): T2 sequence (P56481 whole entry)

| SMILES | IC50 [1] | IC50 [2] | Ke [3] |
| --- | --- | --- | --- |
| CC(C)Oc1cccc(-n2c(NC(=O)Nc3ccc(Br)cc3)nc3ccccc3c2=O)c1 | > 1000 nM | > 1000 nM | – |
| CCOC(=O)c1cccc(NC(=O)NCc2nc3ccccc3c(=O)n2-c2cccc(OC(C)C)c2)c1 | 1470 nM | 126 nM | 230 nM |
| CC(C)Oc1cccc(-n2c(CNC(=S)Nc3ccc(Br)cc3)nc3ccccc3c2=O)c1 | 6930 nM | 8020 nM | – |
| CC(C)Oc1cccc(-n2c(CNC(=O)Nc3ccc(Br)cc3)nc3ccccc3c2=O)c1 | 984 nM | 137 nM | 1300 nM |
| CC(C)Oc1cccc(-n2c(CNC(=O)NCc3ccc(Br)cc3)nc3ccccc3c2=O)c1 | 3100 nM | 652 nM | – |
| CC(C)Oc1cccc(-n2c(CNC(=O)Nc3ccc(C(F)(F)F)cc3)nc3ccccc3c2=O)c1 | 674 nM | 691 nM | – |
| Cc1cccc(NC(=O)NCc2nc3ccccc3c(=O)n2-c2cccc(OC(C)C)c2)c1 | 1640 nM | 879 nM | – |
| CC(C)Oc1cccc(-n2c(CNC(=O)Nc3ccc([N+](=O)[O-])cc3)nc3ccccc3c2=O)c1 | 385 nM | 212 nM | – |
| Cc1ccc(S(=O)(=O)NC(=O)NCc2nc3ccccc3c(=O)n2-c2cccc(OC(C)C)c2)cc1 | > 1000 nM | > 1000 nM | – |
| CC(C)Oc1cccc(-n2c(CCNC(=O)Nc3ccc(Br)cc3)nc3ccccc3c2=O)c1 | 1630 nM | 585 nM | – |
